Measured values reported in ChEMBL document CHEMBL1201862, “PubChem BioAssay data set” (2004).
The source made the active and inactive calls.

Experiments:
[1] = biological target: T1, Short transient receptor potential channel 4 (Mus musculus, UniProt Q9QUQ5); assay: calcium entry via TRPC4 opening agents – cell-based, HEK293 TRPC4/mu-opioid, Fluo-4 calcium, dose response (AID 434937); type: functional
T1 sequence (Q9QUQ5 whole entry): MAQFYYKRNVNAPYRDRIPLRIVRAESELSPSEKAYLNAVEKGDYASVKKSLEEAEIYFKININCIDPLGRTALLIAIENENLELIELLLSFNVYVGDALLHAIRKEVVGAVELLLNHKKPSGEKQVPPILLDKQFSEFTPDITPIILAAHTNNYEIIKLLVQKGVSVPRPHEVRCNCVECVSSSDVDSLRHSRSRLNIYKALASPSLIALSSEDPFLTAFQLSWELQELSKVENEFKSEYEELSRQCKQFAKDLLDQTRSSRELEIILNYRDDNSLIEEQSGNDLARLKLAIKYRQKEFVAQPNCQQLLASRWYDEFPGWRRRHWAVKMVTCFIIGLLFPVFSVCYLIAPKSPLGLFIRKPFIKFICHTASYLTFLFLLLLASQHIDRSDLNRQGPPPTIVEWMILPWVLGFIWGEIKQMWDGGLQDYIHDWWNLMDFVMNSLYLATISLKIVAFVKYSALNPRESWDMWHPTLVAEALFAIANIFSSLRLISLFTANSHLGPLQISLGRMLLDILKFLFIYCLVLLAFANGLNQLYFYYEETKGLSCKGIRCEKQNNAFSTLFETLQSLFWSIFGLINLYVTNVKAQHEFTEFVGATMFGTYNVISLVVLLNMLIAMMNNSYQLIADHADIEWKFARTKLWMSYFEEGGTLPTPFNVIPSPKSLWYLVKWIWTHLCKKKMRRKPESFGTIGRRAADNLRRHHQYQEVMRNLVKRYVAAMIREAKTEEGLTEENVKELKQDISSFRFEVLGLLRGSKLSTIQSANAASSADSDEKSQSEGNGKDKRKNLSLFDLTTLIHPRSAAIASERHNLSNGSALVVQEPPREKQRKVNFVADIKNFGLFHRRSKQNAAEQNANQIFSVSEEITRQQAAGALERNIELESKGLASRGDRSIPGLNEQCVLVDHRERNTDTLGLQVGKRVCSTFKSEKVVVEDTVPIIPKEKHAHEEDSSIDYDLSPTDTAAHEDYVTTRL

HEK293 [2] = assay: cells; type: functional, cell-based; details: Homo sapiens
[3] = biological target: T2, Corticotropin-releasing factor receptor 2/Corticotropin-releasing factor-binding protein (Homo sapiens, UniProt P24387+Q13324); assay: activators of CRF receptor 2 with binding protein – uHTS hits, confirmation (AID 602473); type: functional; details: read-out: EC50_Mean
T2 sequence (Q13324 whole entry): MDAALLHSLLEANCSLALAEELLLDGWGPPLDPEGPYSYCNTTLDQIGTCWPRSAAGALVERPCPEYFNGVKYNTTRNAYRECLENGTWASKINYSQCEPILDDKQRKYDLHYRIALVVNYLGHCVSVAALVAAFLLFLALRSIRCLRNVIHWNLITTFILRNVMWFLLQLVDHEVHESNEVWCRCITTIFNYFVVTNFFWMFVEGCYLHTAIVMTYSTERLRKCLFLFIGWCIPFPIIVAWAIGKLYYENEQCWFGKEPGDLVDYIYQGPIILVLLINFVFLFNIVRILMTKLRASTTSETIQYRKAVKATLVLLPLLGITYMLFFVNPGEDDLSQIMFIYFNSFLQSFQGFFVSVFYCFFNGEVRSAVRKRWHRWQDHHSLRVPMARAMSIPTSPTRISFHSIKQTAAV
T2 sequence (P24387 whole entry): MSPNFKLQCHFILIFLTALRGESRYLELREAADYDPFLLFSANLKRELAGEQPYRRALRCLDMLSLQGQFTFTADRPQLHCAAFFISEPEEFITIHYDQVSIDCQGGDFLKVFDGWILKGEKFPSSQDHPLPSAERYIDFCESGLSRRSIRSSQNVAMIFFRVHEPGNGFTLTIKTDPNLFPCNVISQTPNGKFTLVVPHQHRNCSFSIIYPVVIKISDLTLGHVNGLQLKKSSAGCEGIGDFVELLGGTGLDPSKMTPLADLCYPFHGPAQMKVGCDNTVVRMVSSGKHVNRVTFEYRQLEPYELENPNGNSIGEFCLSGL

HEK293 [4] = assay: cells; type: functional, cell-based; details: Homo sapiens; remark: listed apart in the source
HEK293 [5] = assay: inhibition of NOD1-driven NF-kB reporter – cell-based, luminescence, uHTS, primary screen (AID 1578); type: functional; details: Homo sapiens
HEK293 [6] = assay: NOD2 signaling inhibitors in MDP-stimulated cells, cell-based, uHTS, luminescence (AID 2001); type: functional; details: Homo sapiens
Streptococcus = assay: GAS UMAA2166 growth inhibition – luminescence, BacTiterGlo, counter-screen for streptokinase expression inhibitor project, dose response (AID 1915); type: functional, organism-based;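 further: potency for reduction of bacterial viability or growth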
[7] = test system: Streptococcus sp. 'group A'; assay: Streptococcus pyogenes SK(-)GAS viability under kanamycin – luminescence, BacTiterGlo, confirmation, counter-screen for streptokinase expression inhibitor project, dose response (AID 1900); type: functional, organism-based
Streptokinase A = biological target: T3, Streptokinase A (Streptococcus pyogenes serotype M1, UniProt P10520); assay: viability-normalized secreted streptokinase activity reduction – plasminogen activation absorbance, OD405, dose response (AID 1914); type: functional, Streptococcus pyogenes M1 GAS;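 further: secreted streptokinase activity via plasminogen activation per viability signal from cell pellet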
T3 sequence (P10520 whole entry): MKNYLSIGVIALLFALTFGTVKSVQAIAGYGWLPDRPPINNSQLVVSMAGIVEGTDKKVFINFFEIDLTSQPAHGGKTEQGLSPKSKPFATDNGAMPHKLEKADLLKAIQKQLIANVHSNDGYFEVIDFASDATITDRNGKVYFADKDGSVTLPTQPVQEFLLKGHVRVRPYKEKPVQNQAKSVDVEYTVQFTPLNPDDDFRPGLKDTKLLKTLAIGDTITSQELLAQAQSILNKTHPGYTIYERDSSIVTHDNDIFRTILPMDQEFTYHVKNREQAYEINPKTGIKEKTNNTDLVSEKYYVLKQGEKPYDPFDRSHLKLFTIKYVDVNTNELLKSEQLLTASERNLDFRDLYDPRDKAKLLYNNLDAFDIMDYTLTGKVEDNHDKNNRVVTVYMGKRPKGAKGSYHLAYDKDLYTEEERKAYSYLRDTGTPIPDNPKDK

[8] = Luminescence Cell-Based Dose Confirmation HTS to Identify Inhibitors of Platelet Dense Granule Release. [Related pubchem assays: 1663 (Primary HTS), 1678 (Summary of Project)]; type: functional
Coagulation factor XII = biological target: T4, Coagulation factor XII (Homo sapiens, UniProt P00748); type: functional;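 further: activated factor XIIa alpha cleaving a fluorogenic AMC peptide substrate; inhibitor potency from loss of enzyme activity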
T4 sequence (P00748 whole entry): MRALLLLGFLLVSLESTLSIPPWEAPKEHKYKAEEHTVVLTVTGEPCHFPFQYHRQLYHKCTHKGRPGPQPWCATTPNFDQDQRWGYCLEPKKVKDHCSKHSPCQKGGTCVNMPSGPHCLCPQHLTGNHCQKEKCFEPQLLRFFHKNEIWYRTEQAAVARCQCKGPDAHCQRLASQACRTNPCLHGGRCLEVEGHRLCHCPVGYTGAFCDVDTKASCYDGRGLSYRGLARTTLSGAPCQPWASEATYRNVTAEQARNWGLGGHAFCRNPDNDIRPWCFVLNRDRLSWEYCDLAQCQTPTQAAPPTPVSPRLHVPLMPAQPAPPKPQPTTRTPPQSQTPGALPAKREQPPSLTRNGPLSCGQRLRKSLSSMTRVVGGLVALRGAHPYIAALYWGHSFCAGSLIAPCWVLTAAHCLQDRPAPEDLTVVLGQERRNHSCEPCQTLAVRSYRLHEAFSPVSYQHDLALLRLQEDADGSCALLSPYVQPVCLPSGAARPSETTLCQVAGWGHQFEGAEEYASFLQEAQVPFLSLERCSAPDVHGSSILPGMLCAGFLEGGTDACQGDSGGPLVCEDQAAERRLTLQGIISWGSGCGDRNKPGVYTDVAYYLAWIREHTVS

[9] = biological target: Luciferin 4-monooxygenase (Photinus pyralis, UniProt P08659); assay: inhibition of purified Photinus pyralis luciferase – biochemical, luminescence, dose response (AID 1891)
Chain of Luciferin 4-monooxygenase (P08659 whole entry): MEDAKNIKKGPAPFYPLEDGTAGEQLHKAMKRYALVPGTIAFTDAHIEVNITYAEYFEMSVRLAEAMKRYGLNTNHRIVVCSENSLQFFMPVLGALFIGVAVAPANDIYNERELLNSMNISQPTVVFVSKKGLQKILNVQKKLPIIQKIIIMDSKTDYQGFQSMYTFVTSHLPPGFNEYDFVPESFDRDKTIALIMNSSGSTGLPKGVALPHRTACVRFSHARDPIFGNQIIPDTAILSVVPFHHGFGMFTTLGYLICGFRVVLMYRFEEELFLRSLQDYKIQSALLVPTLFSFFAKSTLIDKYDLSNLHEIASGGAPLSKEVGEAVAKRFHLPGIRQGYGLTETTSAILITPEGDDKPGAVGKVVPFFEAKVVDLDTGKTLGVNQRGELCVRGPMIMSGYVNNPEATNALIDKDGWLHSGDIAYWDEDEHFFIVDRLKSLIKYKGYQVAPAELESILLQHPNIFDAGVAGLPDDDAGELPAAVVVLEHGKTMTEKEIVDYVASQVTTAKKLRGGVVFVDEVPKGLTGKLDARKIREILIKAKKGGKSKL

[10] = biological target: T5, Calpain-2 catalytic subunit (Sus scrofa, UniProt P43367); assay: m-calpain protease blockers, concentration series – biochemical, fluorogenic peptide substrate, dose response (AID 1420); type: functional
T5 sequence (P43367 whole entry): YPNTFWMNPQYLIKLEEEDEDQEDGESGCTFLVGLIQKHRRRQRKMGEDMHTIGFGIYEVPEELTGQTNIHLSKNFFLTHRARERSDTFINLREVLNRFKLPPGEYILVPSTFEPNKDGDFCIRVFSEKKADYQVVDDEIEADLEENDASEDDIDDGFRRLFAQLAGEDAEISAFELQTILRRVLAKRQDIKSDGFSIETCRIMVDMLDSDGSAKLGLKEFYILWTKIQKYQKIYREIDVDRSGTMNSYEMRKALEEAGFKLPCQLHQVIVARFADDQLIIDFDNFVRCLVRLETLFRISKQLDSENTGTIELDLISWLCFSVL

SMILES | EC50 [1] | IC50 (HEK293 [2]) | IC50 (HEK293 [4]) | EC50 (HEK293 [5]) | IC50 (HEK293 [6]) | other results
CCCCC(c1nnnn1CC1CCCO1)N1CCN(c2nc3ccccc3s2)CC1 (stereo not drawn) | 1.06 µM (active) | – | – | – | – | –
Cc1ccc(O)c(C(=O)c2cc(C#N)c3nc4ccccc4n3c2)c1 | – | 14.8 µM (active) | > 20 µM (inactive) | 3.28 µM (active) | 10.2 µM (inactive) | EC50 [3]: 17.5 µM (active)
CC(Sc1n[nH]c2c3ccccc3nc-2n1)C(=O)NC1CCCCC1 (stereo not drawn) | – | 11.1 µM (active) | > 20 µM (inactive) | 4.88 µM (active) | 9.89 µM (active) | –
CCN1CCN(c2c(S(=O)(=O)c3ccc(C)c(C)c3)cnc3ccc(F)cc23)CC1 | 0.944 µM (active) | – | – | – | – | –
S=C(Nc1ccc(Oc2ccccc2)cc1)N1CCN(c2ccccn2)CC1 | – | 5.27 µM (active) | > 20 µM (inactive) | 9.44 µM (active) | 6.67 µM (active) | –
CCOC(=O)C1=NN(C(=O)c2ccc(C)cc2)C(O)(c2ccc(Cl)cc2)C1 (stereo not drawn) | 9.44 µM (active) | – | – | – | – | EC50 (Streptococcus): 8.19 µM (active); EC50 [7]: 2.15 µM (active); EC50 (Streptokinase A): > 150 µM (not active)
CN(CCc1ccccn1)C(=S)Nc1cccc(S(=O)(=O)N(C)C)c1 | 5.31 µM (active) | – | – | – | – | –
CN(C)C(CNC(=O)CCc1c[nH]c2ccccc12)c1ccccc1 (stereo not drawn) | 0.0747 µM (active) | – | – | – | – | –
COCCCn1c(=O)/c(=C\c2ccccc2OC(C)C)s/c1=C(/C#N)C(=O)Nc1ccc(C(=O)O)cc1 | – | – | – | – | – | EC50 (Streptococcus): > 50 µM (not active); EC50 [7]: 1.44 µM (active); EC50 (Streptokinase A): > 150 µM (not active); EC50 [8]: > 112 µM (not active); IC50 (Coagulation factor XII): > 50 µM (inactive); EC50 [9]: > 112 µM (not active); IC50 [10]: 3.61 µM (not active)
